Key:
Test in all cases: relative viability (nuclei count vs DMSO), 5 days (fraction); higher = more cells survive
Mirin + Dasatinib = compound: N=C1NC(=O)/C(=C/c2ccc(O)cc2)S1 [Mirin] + Cc1nc(Nc2ncc(C(=O)Nc3c(C)cccc3Cl)s2)cc(N2CCN(CCO)CC2)n1 [Dasatinib] (partner 0.075 µM)
In short: (§1)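 Cells from lung cancer lines were seeded into 1536-well plates and, one day later, dosed by pin tool. Treatments were either a single drug or a fixed dose of an anchor drug with five library-drug doses (not always all listed) in √10 steps. After 5 days, nuclei were stained in a one-step fixation (final 0.05% Triton X-100, 1% formaldehyde, 1 ug/ml Hoechst) and counted on 4× images, and relative viability is the treated-to-vehicle nuclei ratio, as the median of duplicate plates.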

[1] = compound: CCn1c(-c2nonc2N)nc2cnc(Oc3cccc(NC(=O)c4ccc(OCCN5CCOCC5)cc4)c3)cc21 + CC(=O)Nc1cccc(-n2c(=O)n(C3CC3)c(=O)c3c(Nc4ccc(I)cc4F)n(C)c(=O)c(C)c32)c1 [Trametinib] (partner 0.02 µM)
In short: as §1

[2] = compound: CCn1c(-c2nonc2N)nc2cnc(Oc3cccc(NC(=O)c4ccc(OCCN5CCOCC5)cc4)c3)cc21 + O=C(CCCCCCC(=O)Nc1ccccc1)NO [Vorinostat] (partner 1 µM)
In short: as §1

[3] = compound: CCC1=CN=CN=C1N2CCN(CC2)CC3=NC4=C(N3)C=C(C=C4)C(F)(F)F + Cc1nc(NC(=O)N2CCC[C@H]2C(N)=O)sc1-c1ccnc(C(C)(C)C(F)(F)F)c1 [Alpelisib] (partner 2 µM)
In short: as §1

| Cell Line | relative viability (Mirin + Dasatinib; first compound 0.25 µM) | relative viability (Mirin + Dasatinib; first compound 0.7906 µM) | relative viability (Mirin + Dasatinib; first compound 2.5 µM) | relative viability (Mirin + Dasatinib; first compound 7.906 µM) | relative viability (Mirin + Dasatinib; first compound 25 µM) | relative viability ([1]; first compound 0.04 µM) | relative viability ([1]; first compound 0.1265 µM) | relative viability ([1]; first compound 0.4 µM) | relative viability ([1]; first compound 1.265 µM) | relative viability ([1]; first compound 4 µM) | relative viability ([2]; first compound 0.04 µM) | relative viability ([2]; first compound 0.1265 µM) | relative viability ([2]; first compound 0.4 µM) | relative viability ([2]; first compound 1.265 µM) | relative viability ([2]; first compound 4 µM) | relative viability ([3]; first compound 0.04 µM) | relative viability ([3]; first compound 0.1265 µM) | relative viability ([3]; first compound 0.4 µM) | relative viability ([3]; first compound 1.265 µM) | relative viability ([3]; first compound 4 µM) |
| --- | --- | --- | --- | --- | --- | --- | --- | --- | --- | --- | --- | --- | --- | --- | --- | --- | --- | --- | --- | --- |
| NCI-H2087 | 1.06 | 0.869 | 0.752 | 0.958 | 0.677 | 0.209 | 0.293 | 0.203 | 0.228 | 0.231 | 0.776 | 0.584 | 0.668 | 0.565 | 0.509 | 1.01 | 0.881 | 1.05 | 0.805 | 0.809 |
| NCI-H650 | 0.455 | 0.391 | 0.397 | – | 0.506 | 1.11 | 0.826 | 0.597 | 0.587 | 0.588 | 0.503 | 0.28 | 0.24 | 0.192 | 0.224 | 1.02 | 1.1 | 0.968 | 0.997 | 0.965 |
| LXF-289 | 0.26 | 0.214 | 0.202 | 0.207 | 0.202 | 0.761 | 0.75 | 0.685 | 0.667 | 0.754 | 0.862 | 0.886 | 0.79 | 0.777 | 0.604 | 1.01 | 1.01 | 0.972 | 0.996 | 0.974 |
| LOU-NH91 | 0.549 | 0.564 | 0.535 | 0.477 | 0.65 | 0.751 | 0.697 | 0.617 | 0.543 | 0.487 | 1.06 | 0.824 | 0.661 | 0.529 | 0.548 | 0.621 | 0.689 | 0.712 | 0.63 | 0.72 |
| NCI-H2347 | 0.336 | 0.316 | 0.344 | 0.287 | 0.273 | 0.261 | 0.279 | 0.298 | 0.238 | 0.262 | 0.654 | 0.656 | 0.488 | 0.348 | 0.427 | 1.07 | 1.07 | 0.948 | 0.769 | 0.938 |
| NCI-H1993 | 0.518 | – | 0.678 | 0.455 | 0.556 | 0.441 | 0.427 | 0.464 | 0.439 | 0.509 | 0.991 | 0.764 | 0.649 | 0.697 | 0.697 | 0.593 | 0.623 | 0.743 | 0.77 | 0.727 |
| HCC-827 | 0.407 | 0.336 | 0.301 | 0.451 | 0.334 | 0.586 | 0.662 | 0.683 | 0.573 | 0.689 | 0.92 | 0.881 | 0.806 | 0.525 | 0.701 | 1 | 0.926 | 0.969 | 0.988 | 0.956 |
| NCI-H661 | 0.985 | 0.737 | 0.884 | 0.734 | 0.697 | 0.469 | 0.498 | 0.355 | 0.451 | 0.346 | 0.891 | 0.906 | 0.888 | 0.627 | 0.517 | 0.561 | 0.512 | 0.506 | – | 0.57 |
| CAL-12T | 0.489 | – | 0.503 | 0.347 | 0.28 | 0.354 | 0.363 | 0.372 | 0.346 | 0.345 | 1.44 | 0.862 | 0.731 | 0.553 | 0.288 | 1.25 | 1.16 | 1.06 | 1.32 | 1.09 |
| PC-14 | 0.243 | 0.248 | 0.26 | – | 0.295 | 0.632 | 0.379 | 0.468 | 0.426 | 0.396 | 0.912 | 0.612 | 0.64 | 0.554 | 0.62 | 1.07 | 0.869 | 0.959 | 0.766 | 0.982 |
| NCI-H23 | 0.934 | – | 0.77 | 0.604 | 0.555 | 0.413 | 0.405 | 0.407 | 0.281 | 0.305 | 0.735 | 0.526 | 0.3 | 0.531 | 0.55 | 0.807 | 0.652 | 0.706 | 0.599 | 0.781 |
| SK-LU-1 | 0.209 | 0.163 | 0.161 | 0.209 | 0.224 | 0.481 | 0.386 | 0.378 | 0.254 | 0.311 | 0.895 | 0.654 | 0.593 | 0.422 | 0.42 | 1.03 | 0.995 | 1.04 | 0.771 | 1 |
| NCI-H727 | 0.345 | 0.285 | 0.337 | 0.4 | 0.256 | – | 0.392 | 0.386 | 0.461 | 0.423 | – | 1.23 | 1.05 | 0.961 | 1.36 | 0.684 | 0.483 | 0.463 | – | 0.544 |
| HCC-366 | 0.677 | – | 0.624 | 0.588 | 0.486 | 0.335 | 0.334 | 0.322 | 0.0755 | 0.0555 | 0.396 | 0.3 | 0.137 | 0.0204 | 0.0377 | 0.563 | 0.385 | 0.335 | – | 0.395 |
| SW 1573 | 0.466 | 0.506 | 0.605 | 0.361 | 0.295 | 0.716 | 0.577 | 0.478 | 0.229 | 0.19 | 0.966 | 0.534 | 0.37 | 0.304 | 0.237 | 0.591 | 0.646 | 0.745 | 0.579 | 0.687 |
| A-427 | 0.766 | – | 0.78 | 0.714 | 0.632 | 0.879 | 0.839 | 0.727 | 0.381 | 0.373 | 0.812 | 0.733 | 0.587 | 0.243 | 0.284 | 1.08 | 1.08 | 0.99 | 0.986 | 0.791 |
| NCI-H441 | 0.662 | 0.556 | 0.622 | 0.59 | 0.439 | 0.466 | 0.43 | 0.289 | 0.38 | 0.477 | 1.04 | 0.705 | 0.87 | 0.502 | 0.47 | 0.662 | 0.629 | 0.762 | 0.753 | 0.612 |

Reference: the supplement of paper PMC10307832
